Test results from article PMC9005681, “Use of AD Informer Set compounds to explore validity of novel targets in Alzheimer's disease pathology” (Alzheimer's & Dementia : Translational Research & Clinical …, 2022).
Several values for one entry are separate records, joined by “and”; a condition that tells them apart may be missing. Equal entries are not always repeated.

Columns and labels:
Assay in all cases: PDSP GPCR panel primary binding assays at 10 μM
Settings in all cases: primary assay
[1] = target: T1, cloned human or rodent CNS receptors, channels, and transporters (PDSP panel) (Homo sapiens, UniProt P08172)
T1 construct: expressed in transfected cells
T1 sequence (P08172 1-466): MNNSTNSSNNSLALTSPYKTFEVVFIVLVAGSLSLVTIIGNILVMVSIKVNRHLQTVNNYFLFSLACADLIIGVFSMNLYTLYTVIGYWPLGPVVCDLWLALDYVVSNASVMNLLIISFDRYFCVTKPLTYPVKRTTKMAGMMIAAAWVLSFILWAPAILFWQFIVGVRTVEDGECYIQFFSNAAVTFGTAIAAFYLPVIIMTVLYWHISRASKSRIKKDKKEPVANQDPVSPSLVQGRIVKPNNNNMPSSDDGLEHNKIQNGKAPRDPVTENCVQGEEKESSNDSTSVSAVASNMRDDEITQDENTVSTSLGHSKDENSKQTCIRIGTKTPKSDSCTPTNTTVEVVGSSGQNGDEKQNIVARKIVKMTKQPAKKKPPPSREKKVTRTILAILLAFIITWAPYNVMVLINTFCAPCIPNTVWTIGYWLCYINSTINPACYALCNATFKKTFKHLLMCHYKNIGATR
Method in brief: (§1)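 Competition binding with radiolabeled standard ligands, single 10 μM concentration, four replicates. Targets showing over 50% displacement were followed up with 11-point titrations in triplicate.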

[2] = target: T2, cloned human or rodent CNS receptors, channels, and transporters (PDSP panel) (Homo sapiens, UniProt P08173)
T2 construct: expressed in transfected cells
T2 sequence (P08173 1-479): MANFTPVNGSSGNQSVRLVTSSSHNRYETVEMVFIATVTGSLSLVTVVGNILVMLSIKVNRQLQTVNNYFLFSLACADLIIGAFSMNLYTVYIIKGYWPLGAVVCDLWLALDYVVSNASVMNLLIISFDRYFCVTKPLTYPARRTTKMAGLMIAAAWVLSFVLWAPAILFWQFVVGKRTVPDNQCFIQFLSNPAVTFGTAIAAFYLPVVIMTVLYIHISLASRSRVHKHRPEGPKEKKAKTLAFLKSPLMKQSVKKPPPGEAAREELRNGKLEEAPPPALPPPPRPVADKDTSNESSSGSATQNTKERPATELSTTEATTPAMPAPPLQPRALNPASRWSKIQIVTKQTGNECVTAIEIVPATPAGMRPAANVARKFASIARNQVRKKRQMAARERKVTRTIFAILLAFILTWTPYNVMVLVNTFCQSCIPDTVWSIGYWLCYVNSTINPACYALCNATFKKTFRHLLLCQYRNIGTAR
Method in brief: as §1

[3] = target: T3, cloned human or rodent CNS receptors, channels, and transporters (PDSP panel) (Homo sapiens, UniProt P18089)
T3 construct: expressed in transfected cells
T3 sequence (P18089 1-450): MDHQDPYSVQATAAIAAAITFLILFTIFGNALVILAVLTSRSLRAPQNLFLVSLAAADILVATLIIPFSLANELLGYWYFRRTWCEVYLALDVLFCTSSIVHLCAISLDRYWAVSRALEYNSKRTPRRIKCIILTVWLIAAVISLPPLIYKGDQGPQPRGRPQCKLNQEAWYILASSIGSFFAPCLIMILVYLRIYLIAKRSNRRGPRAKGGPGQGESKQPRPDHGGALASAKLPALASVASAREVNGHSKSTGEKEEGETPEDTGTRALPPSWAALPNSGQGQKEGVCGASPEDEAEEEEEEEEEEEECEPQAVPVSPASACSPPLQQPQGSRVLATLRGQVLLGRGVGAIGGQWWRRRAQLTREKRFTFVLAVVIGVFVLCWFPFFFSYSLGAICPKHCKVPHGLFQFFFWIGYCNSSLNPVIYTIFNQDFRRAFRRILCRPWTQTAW
Method in brief: as §1

[4] = target: T4, cloned human or rodent CNS receptors, channels, and transporters (PDSP panel) (Homo sapiens, UniProt P28221)
T4 construct: expressed in transfected cells
Method in brief: as §1

[5] = target: T5, cloned human or rodent CNS receptors, channels, and transporters (PDSP panel) (Homo sapiens, UniProt P34969)
T5 construct: expressed in transfected cells
Method in brief: as §1

[6] = target: T6, cloned human or rodent CNS receptors, channels, and transporters (PDSP panel) (Homo sapiens, UniProt P47898)
T6 construct: expressed in transfected cells
Method in brief: as §1

[7] = target: T7, cloned human or rodent CNS receptors, channels, and transporters (PDSP panel) (Homo sapiens, UniProt P50406)
T7 construct: expressed in transfected cells
Method in brief: as §1

T6 sequence (P47898 whole entry): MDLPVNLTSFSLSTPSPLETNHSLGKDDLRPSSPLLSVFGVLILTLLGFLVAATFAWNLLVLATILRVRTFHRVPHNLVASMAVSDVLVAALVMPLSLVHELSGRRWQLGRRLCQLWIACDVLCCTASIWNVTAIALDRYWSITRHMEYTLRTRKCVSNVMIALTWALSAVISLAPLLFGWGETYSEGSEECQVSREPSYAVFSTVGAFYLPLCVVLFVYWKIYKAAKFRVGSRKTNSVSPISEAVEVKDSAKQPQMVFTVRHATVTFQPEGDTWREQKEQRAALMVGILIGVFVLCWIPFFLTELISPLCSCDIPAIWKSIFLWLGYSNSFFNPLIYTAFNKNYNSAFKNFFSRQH
T5 sequence (P34969 whole entry): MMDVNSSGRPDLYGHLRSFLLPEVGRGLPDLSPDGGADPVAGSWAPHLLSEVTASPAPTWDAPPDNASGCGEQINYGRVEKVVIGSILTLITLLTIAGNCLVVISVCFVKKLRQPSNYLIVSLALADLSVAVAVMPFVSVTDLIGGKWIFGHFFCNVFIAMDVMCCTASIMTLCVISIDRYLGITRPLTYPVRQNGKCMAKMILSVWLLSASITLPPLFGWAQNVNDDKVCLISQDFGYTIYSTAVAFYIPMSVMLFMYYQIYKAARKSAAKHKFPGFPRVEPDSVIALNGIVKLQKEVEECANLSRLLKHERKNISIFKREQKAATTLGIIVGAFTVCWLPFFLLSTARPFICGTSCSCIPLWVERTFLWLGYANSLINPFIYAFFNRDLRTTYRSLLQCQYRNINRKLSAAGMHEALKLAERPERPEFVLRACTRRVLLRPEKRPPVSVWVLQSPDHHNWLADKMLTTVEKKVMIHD
T7 sequence (P50406 whole entry): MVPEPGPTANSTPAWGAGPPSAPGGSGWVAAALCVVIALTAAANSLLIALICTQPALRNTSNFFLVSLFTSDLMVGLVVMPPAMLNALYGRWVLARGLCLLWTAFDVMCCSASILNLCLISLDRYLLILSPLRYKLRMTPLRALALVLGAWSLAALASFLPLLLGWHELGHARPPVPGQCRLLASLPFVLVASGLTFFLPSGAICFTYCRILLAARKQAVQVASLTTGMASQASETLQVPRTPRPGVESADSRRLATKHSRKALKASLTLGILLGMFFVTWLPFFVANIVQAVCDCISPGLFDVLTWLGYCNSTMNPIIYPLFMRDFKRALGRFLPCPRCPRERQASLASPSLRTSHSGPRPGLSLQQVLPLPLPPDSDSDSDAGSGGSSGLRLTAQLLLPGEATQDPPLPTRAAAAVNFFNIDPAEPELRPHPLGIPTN
T4 sequence (P28221 whole entry): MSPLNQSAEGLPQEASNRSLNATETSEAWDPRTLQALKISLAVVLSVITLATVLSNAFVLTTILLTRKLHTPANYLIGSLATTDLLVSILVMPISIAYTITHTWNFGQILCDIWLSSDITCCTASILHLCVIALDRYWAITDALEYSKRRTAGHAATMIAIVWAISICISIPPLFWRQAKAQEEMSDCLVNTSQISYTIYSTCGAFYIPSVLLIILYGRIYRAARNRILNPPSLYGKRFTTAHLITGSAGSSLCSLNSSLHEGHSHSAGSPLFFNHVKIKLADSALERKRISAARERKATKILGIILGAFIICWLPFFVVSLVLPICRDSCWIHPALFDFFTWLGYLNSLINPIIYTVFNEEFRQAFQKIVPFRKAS

In the case of CCCCNc1ncc2c(-c3ccc(CN4CCN(C)CC4)cc3)cn([C@H]3CC[C@H](O)CC3)c2n1 [UNC2025C, UNC2025], the “Inhibition 1” value ([1]; Receptor M2, 10 μM) is reported as 32.43%, the “Inhibition 2” value ([1]; Receptor M2, 10 μM) is reported as 20.76% and the “Inhibition 3” value ([1]; Receptor M2, 10 μM) is reported as 14.93%. For the same compound, the “Inhibition 4” value ([1]; Receptor M2, 10 μM) was 24.5%, the Mean % ([1]; Receptor M2, 10 μM, mean of Inhibition 1-4) was 23.16% and the “Inhibition 1” value ([2]; Receptor M4, 10 μM) was 21.02%. The “Inhibition 2” value ([2]; Receptor M4, 10 μM) was 3.79%, the “Inhibition 3” value ([2]; Receptor M4, 10 μM) was -16.19% and the “Inhibition 4” value ([2]; Receptor M4, 10 μM) was 18.49%. The Mean % ([2]; Receptor M4, 10 μM, mean of Inhibition 1-4) was 6.78%, the “Inhibition 1” value ([3]; Receptor Alpha2B, 10 μM) was 27.09% and the “Inhibition 2” value ([3]; Receptor Alpha2B, 10 μM) was 28.85%. The “Inhibition 3” value ([3]; Receptor Alpha2B, 10 μM) was -0.55%, the “Inhibition 4” value ([3]; Receptor Alpha2B, 10 μM) was 53.34% and the Mean % ([3]; Receptor Alpha2B, 10 μM, mean of Inhibition 1-4) was 27.18%. For the same compound, the “Inhibition 1” value ([4]; Receptor 5-HT1D, 10 μM) was 51.95%, the “Inhibition 2” value ([4]; Receptor 5-HT1D, 10 μM) was 44.87% and the “Inhibition 3” value ([4]; Receptor 5-HT1D, 10 μM) was 26.55%. The “Inhibition 4” value ([4]; Receptor 5-HT1D, 10 μM) was 48.2%, the Mean % ([4]; Receptor 5-HT1D, 10 μM, mean of Inhibition 1-4) was 42.89% and the “Inhibition 1” value ([5]; Receptor 5-HT7A, 10 μM) was 13.62%. The “Inhibition 2” value ([5]; Receptor 5-HT7A, 10 μM) was -19.4%, the “Inhibition 3” value ([5]; Receptor 5-HT7A, 10 μM) was -17.29% and the “Inhibition 4” value ([5]; Receptor 5-HT7A, 10 μM) was -17.42%. For the same compound, the Mean % ([5]; Receptor 5-HT7A, 10 μM, mean of Inhibition 1-4) was -10.12%, the “Inhibition 1” value ([6]; Receptor 5-HT5A, 10 μM) was 24.59% and the “Inhibition 2” value ([6]; Receptor 5-HT5A, 10 μM) was 14.3%. For the same compound, the “Inhibition 3” value ([6]; Receptor 5-HT5A, 10 μM) was 9.95%, the “Inhibition 4” value ([6]; Receptor 5-HT5A, 10 μM) was 29.74% and the Mean % ([6]; Receptor 5-HT5A, 10 μM, mean of Inhibition 1-4) was 19.65%. The “Inhibition 1” value ([7]; Receptor 5-HT6, 10 μM) was -20.29%, the “Inhibition 2” value ([7]; Receptor 5-HT6, 10 μM) was 0.2% and the “Inhibition 3” value ([7]; Receptor 5-HT6, 10 μM) was -8.54%. The “Inhibition 4” value ([7]; Receptor 5-HT6, 10 μM) was -2.02% and the Mean % ([7]; Receptor 5-HT6, 10 μM, mean of Inhibition 1-4) was -7.66%.

For CCC(=O)N1CCC(NC(=O)Nc2ccc(OC(F)(F)F)cc2)CC1 [UNC10302681A, TPPU], the Mean % ([1]; M2, mean inhibition) was -13.3%, the “Inhibition 1” value ([1]; M2, replicate 1) was -14.72% and the “Inhibition 2” value ([1]; M2, replicate 2) was -20.61%. For the same compound, the “Inhibition 3” value ([1]; M2, replicate 3) was -11.27%, the “Inhibition 4” value ([1]; M2, replicate 4) was -6.61% and the Mean % ([2]; M4, mean inhibition) was 27.22%. The “Inhibition 1” value ([2]; M4, replicate 1) was 20.33%, the “Inhibition 2” value ([2]; M4, replicate 2) was 6.55% and the “Inhibition 3” value ([2]; M4, replicate 3) was 30.66%. The “Inhibition 4” value ([2]; M4, replicate 4) was 51.34%, the Mean % ([3]; Alpha2B, mean inhibition) was 6.32% and the “Inhibition 1” value ([3]; Alpha2B, replicate 1) was 1.27%. The “Inhibition 2” value ([3]; Alpha2B, replicate 2) was 8.98%, the “Inhibition 3” value ([3]; Alpha2B, replicate 3) was 5.54% and the “Inhibition 4” value ([3]; Alpha2B, replicate 4) was 9.47%. For the same compound, the Mean % ([4]; 5-HT1D, mean inhibition) was 0.73%, the “Inhibition 1” value ([4]; 5-HT1D, replicate 1) was 17.8% and the “Inhibition 2” value ([4]; 5-HT1D, replicate 2) was -3.44%. The “Inhibition 3” value ([4]; 5-HT1D, replicate 3) was -7.6%, the “Inhibition 4” value ([4]; 5-HT1D, replicate 4) was -3.85% and the Mean % ([5]; 5-HT7A, mean inhibition) was 28.67%. The “Inhibition 1” value ([5]; 5-HT7A, replicate 1) was 34.17%, the “Inhibition 2” value ([5]; 5-HT7A, replicate 2) was 16.81% and the “Inhibition 3” value ([5]; 5-HT7A, replicate 3) was 23.63%. For the same compound, the “Inhibition 4” value ([5]; 5-HT7A, replicate 4) was 40.05%, the Mean % ([6]; 5-HT5A, mean inhibition) was -10.71% and -8.22% and the “Inhibition 1” value ([6]; 5-HT5A, replicate 1) was 25.37% and 9.24%. The “Inhibition 2” value ([6]; 5-HT5A, replicate 2) was -13.71% and -7.98%, the “Inhibition 3” value ([6]; 5-HT5A, replicate 3) was -53.57% and -12.99% and the “Inhibition 4” value ([6]; 5-HT5A, replicate 4) was -0.94% and -21.14%. For the same compound, the Mean % ([7]; 5-HT6, mean inhibition) was -0.91%, the “Inhibition 1” value ([7]; 5-HT6, replicate 1) was 25.92% and the “Inhibition 2” value ([7]; 5-HT6, replicate 2) was -7.74%. For the same compound, the “Inhibition 3” value ([7]; 5-HT6, replicate 3) was -9.33% and the “Inhibition 4” value ([7]; 5-HT6, replicate 4) was -12.5%.

O=C(NC1CC1)C(=O)C(Cc1ccccc1)NC(=O)[C@H]1CCC(=O)N1Cc1ccccc1 (stereo partly drawn) [UNC10302676A, ABT-957 (Alicapistat)] was tested, and the Mean % ([1]; M2, mean inhibition) was 2.92%, the “Inhibition 1” value ([1]; M2, replicate 1) was 7.16% and the “Inhibition 2” value ([1]; M2, replicate 2) was -5.38%. The “Inhibition 3” value ([1]; M2, replicate 3) was 7.65%, the “Inhibition 4” value ([1]; M2, replicate 4) was 2.24% and the Mean % ([2]; M4, mean inhibition) was -0.92%. For the same compound, the “Inhibition 1” value ([2]; M4, replicate 1) was -9.99%, the “Inhibition 2” value ([2]; M4, replicate 2) was -2.41% and the “Inhibition 3” value ([2]; M4, replicate 3) was -11.37%. The “Inhibition 4” value ([2]; M4, replicate 4) was 20.1%, the Mean % ([3]; Alpha2B, mean inhibition) was 8.48% and the “Inhibition 1” value ([3]; Alpha2B, replicate 1) was 16.01%. The “Inhibition 2” value ([3]; Alpha2B, replicate 2) was 17.34%, the “Inhibition 3” value ([3]; Alpha2B, replicate 3) was -9.53% and the “Inhibition 4” value ([3]; Alpha2B, replicate 4) was 10.08%. The Mean % ([4]; 5-HT1D, mean inhibition) was 14.89%, the “Inhibition 1” value ([4]; 5-HT1D, replicate 1) was 25.3% and the “Inhibition 2” value ([4]; 5-HT1D, replicate 2) was 16.14%. For the same compound, the “Inhibition 3” value ([4]; 5-HT1D, replicate 3) was 8.22%, the “Inhibition 4” value ([4]; 5-HT1D, replicate 4) was 9.89% and the Mean % ([5]; 5-HT7A, mean inhibition) was 15.15%. The “Inhibition 1” value ([5]; 5-HT7A, replicate 1) was 8.6%, the “Inhibition 2” value ([5]; 5-HT7A, replicate 2) was 21.46% and the “Inhibition 3” value ([5]; 5-HT7A, replicate 3) was 9.06%. For the same compound, the “Inhibition 4” value ([5]; 5-HT7A, replicate 4) was 21.46%, the Mean % ([6]; 5-HT5A, mean inhibition) was -3.42% and the “Inhibition 1” value ([6]; 5-HT5A, replicate 1) was 4.48%. For the same compound, the “Inhibition 2” value ([6]; 5-HT5A, replicate 2) was -8.24%, the “Inhibition 3” value ([6]; 5-HT5A, replicate 3) was -6.55% and the “Inhibition 4” value ([6]; 5-HT5A, replicate 4) was -3.37%. For the same compound, the Mean % ([7]; 5-HT6, mean inhibition) was -7.55%, the “Inhibition 1” value ([7]; 5-HT6, replicate 1) was 7.34% and the “Inhibition 2” value ([7]; 5-HT6, replicate 2) was -8.22%. The “Inhibition 3” value ([7]; 5-HT6, replicate 3) was -20.76% and the “Inhibition 4” value ([7]; 5-HT6, replicate 4) was -8.54%.
